Laboratory results: patent publication US20220364065A1, “COMPOSITION FOR REMOVING PLURIPOTENT STEM CELLS AND METHOD OF REMOVING PLURIPOTENT STEM CELLS” (NATIONAL UNIVERSITY CORPORATION HOKKAIDO UNIVERSITY, priority 2018, published 2022)
Peptide text beside a SMILES is read from it. * marks the point of attachment. Cbz = O=C(OCc1ccccc1)*; CH2F = FC*

What was measured:
[1] = system: mouse iPS cells; test: Immunostaining of pluripotent stem cell markers (Sox2, Nanog, Oct4), iPS cells; assay type: cell-based; conditions: iPS cells, BRQ 10 μM
Protocol: (§1) The cells were fixed and immunostained as described in Kondo et al., Genes Dev. […] For the culture of ES cells and iPS cells, gelatin-coated ones were used.
(§2) For immunostaining, the cells were first washed once with PBS, then fixed by adding 4% paraformaldehyde and incubating for 10 minutes at room temperature. The cells were replaced with PBS containing 0.3% Triton X100 and incubated for 5 minutes at room temperature, then replaced with PBS containing 0.3% Triton X100 and 10% FCS (blocking solution) and incubated for 30 minutes at room temperature. The solution was replaced with primary antibody solution diluted in blocking solution and incubated for 2 hours at room temperature. After washing three times with PBS, secondary antibody and DAPI solution diluted with blocking solution were added and incubated at room temperature for 2 hours. […] Note that the cell nuclei were visualized by contrast staining with DAPI solution (1 μg/mL, manufactured by Dojindo, product code: D523). In addition, fluorescence images were acquired with an Axiolmager M1 microscope (manufactured by Carl Zeiss).
(§3) LMB is a specific inhibitor of CRM1, also known as Exportin 1.

[2] = system: mouse ES cells; test: Immunostaining of pluripotent stem cell markers (Sox2, Nanog, Oct4), ES cells; assay type: cell-based; conditions: ES cells, BRQ 10 μM
Protocol: as §1, §2, §3

[3] = system: mouse iPS cells; test: Nucleoside neutralization experiment (MTT), iPS cells; conditions: 10 μM BRQ, 3 days, added up to 500 μM
Text: (§4) Pyrimidine synthesis is regulated by the de novo (de novo synthesis) pathway and salvage pathway. DHODH is a key factor in de novo synthesis, catalyzing the fourth chemical reaction in the synthetic pathway. In view of this, the present inventor investigated whether the effect of eliminating pluripotent stem cells by DHODH inhibitors could be eliminated by adding nucleosides such as uridine, which is the starting material of the salvage pathway.
(§5) In addition, UMP, a product of the pyrimidine synthesis pathway, is converted to UDP and UTP. Furthermore, uridine diphosphate-N-acetylglucosamine (UDP-GlcNac) is also biosynthesized using UTP as a substrate. […] Therefore, the present inventor verified whether the cytotoxic activity of DHODH inhibitors on pluripotent stem cells could also be neutralized by the products from these UMPs.

[4] = system: mouse ES cells; test: Nucleoside neutralization experiment (MTT), ES cells; conditions: 10 μM BRQ, 3 days, added up to 500 μM
Text: as §4, §5

## CC(NC(=O)C(NC(=O)OCc1ccccc1)C(C)C)C(=O)NC(CC(=O)O)C(=O)CF (stereo not drawn) [Z-VAD] (Cbz-Val-Ala-Asp-CH2F; configuration not given here)
[1]; ZVAD 100 nM
  effect on BRQ-dependent cell death: slight delay
[2]; ZVAD 100 nM
  effect on BRQ-dependent cell death: slight delay

## uridine diphosphate-N-acetylglucosamine [UDP-GlcNac]
[3]
  neutralizing activity against the cytotoxic activity of BRQ: neutralized
[4]
  neutralizing activity against the cytotoxic activity of BRQ: neutralized

## CCC(=C/[C@H](C)C/C=C/C(C)=C/[C@@H](C)C(=O)[C@@H](C)[C@H](O)[C@@H](C)C/C(C)=C/C(=O)O)/C=C/[C@@H]1OC(=O)C=C[C@@H]1C [LMB, leptomycin B]
[1]; 2 days, LMB 0.15 nM
  nuclear export of Nanog and Oct4 in cells treated with BRQ: completely suppressed
[2]; 2 days, LMB 0.15 nM
  nuclear export of Nanog and Oct4 in cells treated with BRQ: completely suppressed
